pKi: −log10 of the molar value.
Legend:
[1] = Displacement of [3H]ditolylguanidine from sigma 2 opioid receptor in rat liver homogenate; type: tissue-based
[2] = Selectivity for rat liver sigma 1 opioid receptor over rat liver sigma 2 opioid receptor
[3] = biological target: Sigma non-opioid intracellular receptor 1 (Rattus norvegicus, UniProt Q9R0C9); assay: Displacement of [3H](+)-pentazocine from sigma 1 opioid receptor in rat liver homogenate; type: tissue-based
[4] = biological target: Kappa-type opioid receptor (Cavia porcellus) (UniProt P41144); assay: Displacement of [3H]-U-69593 from kappa-type opioid receptor in guinea pig brain homogenate at 1 uM; type: tissue-based
Mu-type opioid receptor = Mu-type opioid receptor (Cavia porcellus, UniProt P97266); assay: Displacement of [3H]DAMGO from mu-type opioid receptor in guinea pig brain homogenate; type: tissue-based
[5] = biological target: Delta-type opioid receptor (Rattus norvegicus) (UniProt P33533); assay: Displacement of [3H]DPDPE from delta opioid receptor in rat brain homogenate at 1 uM; type: tissue-based
[6] = biological target: Mu-type opioid receptor (Cavia porcellus) (UniProt P97266); assay: Displacement of [3H]DAMGO from mu-type opioid receptor in guinea pig brain homogenate at 1 uM; type: tissue-based
[7] = biological target: Delta-type opioid receptor (Rattus norvegicus, UniProt P33533); assay: Displacement of [3H]DPDPE from delta opioid receptor in rat brain homogenate; type: tissue-based
[8] = biological target: Kappa-type opioid receptor (Cavia porcellus, UniProt P41144); assay: Displacement of [3H]-U-69593 from kappa-type opioid receptor in guinea pig brain homogenate; type: tissue-based
Chain of Kappa-type opioid receptor (P41144 whole entry): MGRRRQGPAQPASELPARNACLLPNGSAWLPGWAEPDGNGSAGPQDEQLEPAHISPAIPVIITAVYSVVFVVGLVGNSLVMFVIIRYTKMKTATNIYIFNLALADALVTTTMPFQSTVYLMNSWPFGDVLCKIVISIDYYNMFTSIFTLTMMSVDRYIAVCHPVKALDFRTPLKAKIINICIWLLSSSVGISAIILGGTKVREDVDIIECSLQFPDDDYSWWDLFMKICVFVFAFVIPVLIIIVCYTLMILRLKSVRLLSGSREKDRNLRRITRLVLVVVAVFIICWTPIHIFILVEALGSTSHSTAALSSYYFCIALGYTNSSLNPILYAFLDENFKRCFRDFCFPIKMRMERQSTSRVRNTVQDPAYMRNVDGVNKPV

Chain of Kappa-type opioid receptor (Cavia porcellus) (P41144 whole entry): as above
Chain of Mu-type opioid receptor (Cavia porcellus) (P97266 whole entry): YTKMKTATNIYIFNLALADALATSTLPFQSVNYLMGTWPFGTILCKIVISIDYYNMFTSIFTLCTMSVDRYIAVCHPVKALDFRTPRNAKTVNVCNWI
Chain of Sigma non-opioid intracellular receptor 1 (Q9R0C9 whole entry): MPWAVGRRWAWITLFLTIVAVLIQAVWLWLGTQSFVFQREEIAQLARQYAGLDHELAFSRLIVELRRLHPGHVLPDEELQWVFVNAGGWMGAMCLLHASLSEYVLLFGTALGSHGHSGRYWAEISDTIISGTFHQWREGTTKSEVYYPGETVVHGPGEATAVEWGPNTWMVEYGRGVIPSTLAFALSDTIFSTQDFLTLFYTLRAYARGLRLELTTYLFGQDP
Chain of Delta-type opioid receptor (Rattus norvegicus) (P33533 whole entry): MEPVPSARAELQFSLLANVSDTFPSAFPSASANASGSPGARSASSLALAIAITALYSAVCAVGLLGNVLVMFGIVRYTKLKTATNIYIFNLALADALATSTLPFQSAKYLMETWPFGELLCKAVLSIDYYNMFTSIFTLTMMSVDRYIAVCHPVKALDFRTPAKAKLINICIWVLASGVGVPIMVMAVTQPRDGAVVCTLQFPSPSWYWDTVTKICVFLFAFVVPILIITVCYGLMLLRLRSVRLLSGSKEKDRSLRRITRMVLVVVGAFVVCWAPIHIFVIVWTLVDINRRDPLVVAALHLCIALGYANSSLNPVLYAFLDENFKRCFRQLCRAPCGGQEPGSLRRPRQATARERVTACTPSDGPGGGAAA
Chain of Delta-type opioid receptor (P33533 whole entry): as above
Chain of Mu-type opioid receptor (P97266 whole entry): as the sequence (P97266 whole entry) above

pKi [1] | selectivity ratio [2] | pKi [3] | inhibition [4] [%] | pKi (Mu-type opioid receptor) | inhibition [5] [%] | inhibition [6] [%] | pKi [7] | pKi [8] | Compound
6.51 | 74 | 8.38 |  |  |  |  |  |  | C/C(=C\CN(C)Cc1ccccc1)c1ccc(-c2ccccc2)cc1
6.77 | 131 | 8.89 |  |  |  |  |  |  | COc1ccc2cc(C(C)CCN3CCCCC3)ccc2c1 (racemic)
6.67 | 60 | 8.44 | 15 | 6.61 | 0 |  |  |  | CC(CCN(C)Cc1ccccc1)c1ccc(-c2ccccc2)cc1 (racemic)
6.03 | 156 | 8.22 | 30 |  |  | 32 | 7.39 |  | COc1ccc2cc(C(C)(O)CCN(C)Cc3ccccc3)ccc2c1 (racemic)
6.81 | 15 | 7.98 |  |  |  |  |  |  | COc1ccc2cc(C(C)(O)CCN3CCCCC3)ccc2c1 (stereo not drawn)
6.77 | 73 | 8.64 |  |  |  | 32 | 6.77 | 6.08 | COc1ccc2cc(C(C)CCN(C)Cc3ccccc3)ccc2c1 (racemic)
6.87 | 31 | 8.36 |  |  |  |  |  |  | COc1ccc2cc(/C(C)=C/CN3CCCCC3)ccc2c1
5.81 | 108 | 7.84 |  |  |  |  |  |  | COc1ccc2cc(C(C)CCN(C)C)ccc2c1 (racemic)
< 5.00 | > 258 | 7.41 |  |  |  |  |  |  | COc1ccc2cc(C(C)(O)CCN(C)C)ccc2c1 (racemic)
6.25 | 41 | 7.86 |  |  |  |  |  |  | COc1ccc2cc(/C(C)=C/CN(C)Cc3ccccc3)ccc2c1
6.15 | 26 | 7.56 |  |  |  |  |  |  | COc1ccc2cc(/C(C)=C/CN(C)C)ccc2c1
6.67 | 90 | 8.62 | 30 |  | 31 | 45 |  |  | CN(CCC(C)(O)c1ccc(-c2ccccc2)cc1)Cc1ccccc1 (racemic)

Source: ChEMBL document CHEMBL1159086, “Design, synthesis and SAR analysis of novel selective sigma1 ligands (Part 2)” (Bioorg Med Chem, 2010)
